# Marks after values point to notes of the source that are not given here.
# Tests used:
# filaggrin = experiment: Filaggrin synthesis by keratinocytes (fluorescence-image analysis); assay type: cell-based, human; settings: for Filaggrin synthesis, Fluorescence: Table 3, HaCat; for Filaggrin synthesis, Fluorescence / Filaggrin synthesis, Fluorescence, result per 106 cells: calcium-deficient medium; for Filaggrin synthesis, Fluorescence / Filaggrin synthesis, Fluorescence, result per 106 cells / increase in filaggrin synthesis on the control value: 14 days; for Filaggrin synthesis, Fluorescence, result per 106 cells: Table 2, HaCat
# Experimental: HaCat cells were cultured to confluence, in a deficient medium in calcium, in the presence or absence of hydroxymethionine-Ca for 14 days. The culture period was rather long in order to enable the keratinocytes to pursue differentiation up to a rather late stage in order to detect the emergence of filaggrin. Quantification was conducted by fluorescence-image analysis after labeling filaggrin with a specific probe (polyclonal antibody, Santa-Cruz). […]
# Keratinocytes = experiment: Osmolar protection: cell vitality by MTT after hyperosmotic stress; assay type: cell-based; settings: D-Sorbitol 200 mM, 0.06%
# Experimental: Keratinocytes were cultured in an appropriate culture medium. Then, cells were exposed to hyperosmolar shock induced by D-Sorbitol 200 mM. […] The osmoprotector effect of the products is estimated by quantifying the cellular survival. MTT Method is used: the measure of the survival is made at T0, T24 h and T48 h after the beginning of the stress. An analysis of the variances is realized on the data. In case of identity of the variances, a test of Student for matched series is then realized on the averages.
# keratin K10 = experiment: Synthesis of keratin 10 by keratinocytes (fluorescence image analysis); assay type: cell-based, human; settings: 14 days; for Synthesis of keratin 10, Fluorescence: HaCat, calcium-poor medium
# Experimental: HaCat cells were cultured in the presence or absence of hydroxymethionine-Ca, 3-aminopropanesulfonic Acid alone, and both compounds in a calcium-poor culture medium for 14 days. The incubation time was rather long to enable the keratinocytes to pursue differentiation up to a late stage, thus enabling detection of the emergence of keratin K10. Quantification was conducted by fluorescence image analysis using 1 specific fluorescent probe (anti-keratin monoclonal antibody (Monosan) for keratin K10).
# [1] = tested on: Human HaCat keratinocytes; experiment: Stimulation of keratinocyte proliferation (Hoescht DNA labeling); assay type: cell-based; settings: 14 days; for Keratinocyte proliferation vs. control cell proliferation: n = 3
# Experimental: The stimulation of cell growth can be readily measured by uptake of a fluorescent probe that intercalates between DNA bases (Hoescht method). There is a proportional relationship between the quantity of fluorescent DNA taken up and the number of cells. […] Cells and products were incubated during 14 days (37° C./5% CO2), the mediums being renewed at regular intervals. Then lawns were rinsed and broke before being labeled by means of the colouring agent inserting of the DNA HOESCHT 33258. The intensity of the labeling is proportional to the quantity of DNA of the cellular samples. A curve of calibration allows to correlate the intensity of the labeling to the number of cells.
# transglutaminase = experiment: Transglutaminase mRNA by quantitative RT-PCR; assay type: cell-based, human; settings: 8 days; for Transglutaminase mRNA, Ct, result per 106 cells: HaCat
# Experimental: HaCat cells were cultured in the presence or absence of hydroxymethionine-Ca for 8 days. The quantitative RT-PCR method used on the mRNA for transglutaminase is sensitive and yielded results as of 8 days of culture. Quantification consisted in analysis of the cycle threshold (Ct) parameter, which reflects the amplification power used to obtain a detectable signal.
# Amplification is exponantial and of order 1.7 (recopying effectiveness for each cycle).
# [2] = tested on: Normal Human Keratinocyte (KHN) cells; experiment: Genes expression profile by DNA array on human keratinocyte culture; assay type: cell-based
# Experimental: The genes expression profile modulated by hydroxymethionine was studied on human keratinocyte culture, cultured in the presence or absence of hydroxymethionine-Ca by DNA array studies allowing the detection of the main genes.
# Normal Human Keratinocyte (KHN) cells were cultured to confluence before receiving 5×10E-3% hydroxymethionine or 5×10E-2% hydroxymethionine diluted in the culture medium. The negative controls are medium without hydroxymethionine. The KHN were incubated (37° C./5% CO2) at different times before that the culture was stopped to allow the extraction of the total RNA. Then, the quantitation of the mRNA of interest is allowed by the use of ADN biochip and quantified by means of software of interpretations of the fluorescent signals recorded by the sensors.
# HaCat cells = experiment: Intracellular lipid synthesis (red oil staining of lipid vesicles); assay type: cell-based, human; settings: 14 days; for Formation of lipid vesicles, Red-oil staining, result per 106 cells: HaCat
# Experimental: The intracellular lipid vesicles characterize a late phase of differentiation. HaCat cells were cultured in the presence or absence of hydroxymethionine-Ca for 14 days. The incubation duration was rather long in order to enable the keratinocytes to pursue differentiation up to a relatively late stage.
# Quantification was conducted by image analysis after red oil staining of the lipid vesicles.
# [3] = concentration 0.02% (mix: each)
# [4] = concentration 0.05% (mix: each)
smiles,measurement,setting,value
NCCCS(=O)(=O)O [3-aminopropanesulfonic acid],"Filaggrin synthesis, Change (%) vs control","filaggrin; Table 3, 14 days, 0.02%",0.8 X
same,"Filaggrin synthesis, Change (%) vs control","filaggrin; Table 3, 14 days, 0.05%",X 1
same,"Filaggrin synthesis, Change (%) vs control","filaggrin; Table 3, 14 days, 0.06%",0.8 X
same,"Filaggrin synthesis, Fluorescence",filaggrin; 0.02%,1.2 +/− 0.6 arbitrary unit
same,"Filaggrin synthesis, Fluorescence",filaggrin; 0.05%,1.5 +/− 0.7 arbitrary unit
same,"Filaggrin synthesis, Fluorescence",filaggrin; 0.06%,1.2 +/− 0.6 arbitrary unit
same,Variation of the number of cells with regard to the control after a hyperosmotic stress (MTT),Keratinocytes; T0,+8%
same,Variation of the number of cells with regard to the control after a hyperosmotic stress (MTT),Keratinocytes; T24 h,+180%
same,Variation of the number of cells with regard to the control after a hyperosmotic stress (MTT),Keratinocytes; T48 h,+247%
same,"differentiating effect, keratin 10",keratin K10,devoid of differentiating effect
same,"Synthesis of keratin 10, Fluorescence",keratin K10; 0.02%,0.1 +/− 0.05 arbitrary unit
same,"Synthesis of keratin 10, Fluorescence",keratin K10; 0.05%,<0.1 arbitrary unit
same,"Synthesis of keratin 10, Fluorescence",keratin K10; 0.06%,0.1 +/− 0.06 arbitrary unit
same,effect on cell proliferation,[1]; 0.02% and 0.05%,no stimulant effect
same,Keratinocyte proliferation vs. control cell proliferation,[1]; [3],0%
same,Keratinocyte proliferation vs. control cell proliferation,[1]; [4],0%
"CSCCC(O)C(=O)O (centres unmarked) [Hydroxymethionine-Ca (AHMC), 2-hydroxy-4-(thiomethyl)butanoic acid]","Filaggrin synthesis, Change (%) vs control","filaggrin; Table 2, 14 days, 0.015%",+379%
same,"Filaggrin synthesis, Change (%) vs control","filaggrin; Table 2, 14 days, 0.03%",+1072%
same,"Filaggrin synthesis, Change (%) vs control","filaggrin; Table 2, 14 days, 0.06%",+943%
same,"Filaggrin synthesis, Fluorescence, result per 106 cells",filaggrin; 0.015%,1.9 ± 1.4 arbitrary unit
same,"Filaggrin synthesis, Fluorescence, result per 106 cells",filaggrin; 0.03%,4.6 ± 3.1 arbitrary unit
same,"Filaggrin synthesis, Fluorescence, result per 106 cells",filaggrin; 0.06%,4.1 ± 3.5 arbitrary unit
same,"Filaggrin synthesis, Change (%) vs control","filaggrin; Table 3, 14 days, 0.02%",3.3 X
same,"Filaggrin synthesis, Change (%) vs control","filaggrin; Table 3, 14 days, 0.05%",3.4 X
same,"Filaggrin synthesis, Change (%) vs control","filaggrin; Table 3, 14 days, 0.06%",2.7 X
same,"Filaggrin synthesis, Fluorescence",filaggrin; 0.02%,5.0 arbitrary unit
same,"Filaggrin synthesis, Fluorescence",filaggrin; 0.05%,5.2 arbitrary unit
same,"Filaggrin synthesis, Fluorescence",filaggrin; 0.06%,4.2 arbitrary unit
same,increase in filaggrin synthesis on the control value,filaggrin; concentration equivalent to 0.06%,≤ 10 fold
same,increase in filaggrin synthesis on the control value,filaggrin; lowest concentration,3.7 fold
same,production of filaggrine,"filaggrin; used concentrations, 14 days after contact",strongly stimulates
same,Variation of the number of cells with regard to the control after a hyperosmotic stress (MTT),Keratinocytes; T0,+54%
same,Variation of the number of cells with regard to the control after a hyperosmotic stress (MTT),Keratinocytes; T24 h,+108%
same,Variation of the number of cells with regard to the control after a hyperosmotic stress (MTT),Keratinocytes; T48 h,+112%
same,"Transglutaminase mRNA, Change (%) vs control",transglutaminase; 0.015%,+322%*
same,"Transglutaminase mRNA, Change (%) vs control",transglutaminase; 0.03%,+661%*
same,"Transglutaminase mRNA, Change (%) vs control",transglutaminase; 0.06%,+814%*
same,increase in mRNA coding for transglutaminase,transglutaminase; dose-dependent,8 fold
same,"Transglutaminase mRNA, Ct, result per 106 cells",transglutaminase; 0.015%,23.7 ± 0.3 amplification unit
same,"Transglutaminase mRNA, Ct, result per 106 cells",transglutaminase; 0.03%,22.9 ± 0.1 amplification unit
same,"Transglutaminase mRNA, Ct, result per 106 cells",transglutaminase; 0.06%,22.5 ± 0.3 amplification unit
same,"Synthesis of keratin 10, Change vs control",keratin K10; 0.02%,X 45
same,"Synthesis of keratin 10, Change vs control",keratin K10; 0.05%,X 57
same,"Synthesis of keratin 10, Change vs control",keratin K10; 0.06%,X 44
same,"Synthesis of keratin 10, Fluorescence",keratin K10; 0.02%,4.0 arbitrary unit
same,"Synthesis of keratin 10, Fluorescence",keratin K10; 0.05%,5.1 +/− 1.3 arbitrary unit
same,"Synthesis of keratin 10, Fluorescence",keratin K10; 0.06%,3.9 +/− 1.7 arbitrary unit
same,properties shown by the gene expression study,[2],"proliferative, pro-differentiation and proteinogenic properties but also DNA repairing properties"
same,activation of the gene HK2 involved in the proliferation,[2]; 5×10E-3% or 5×10E-2%,marked activation
same,activation of the gene endothelin 1 involved in the cellular differentiation,[2]; 5×10E-3% or 5×10E-2%,marked activation
same,activity of the gene CACNA1C (subunit alpha 1 of the voltage-dependent calcium channel),[2]; 5×10E-3% or 5×10E-2%,increased activity
same,activity of the gene for RYR (ryanodine receptor),[2]; 5×10E-3% or 5×10E-2%,increased activity
same,"differentiation activities (ornithine decarboxylase, keratins, involucrin, intermediate filaments, claudin genes)",[2]; 5×10E-3% or 5×10E-2%,strongly expressed
same,gene TGD (thymidine DNA glycolase),[2]; 5×10E-3% or 5×10E-2%,activated
same,Keratinocyte proliferation vs. control cell proliferation,[1]; [3],223%
same,Keratinocyte proliferation vs. control cell proliferation,[1]; [4],170%
same,"Formation of lipid vesicles, Change (%) vs control",HaCat cells; 0.015%,+77%
same,"Formation of lipid vesicles, Change (%) vs control",HaCat cells; 0.03%,+58%
same,"Formation of lipid vesicles, Change (%) vs control",HaCat cells; 0.06%,+66%
same,"Formation of lipid vesicles, Red-oil staining, result per 106 cells",HaCat cells; 0.015%,2.8 ± 0.3 arbitrary unit
same,"Formation of lipid vesicles, Red-oil staining, result per 106 cells",HaCat cells; 0.03%,2.5 ± 0.7 arbitrary unit
same,"Formation of lipid vesicles, Red-oil staining, result per 106 cells",HaCat cells; 0.06%,2.6 ± 0.6 arbitrary unit

# — US8377663B2, “Cosmetic composition comprising hydroxymethionine and 3-aminopropanesulfonic acid” (Sederma, S.A.S., priority 2007, dated 2013)
